# US20240261292A1, “COMBINATION THERAPIES” (Janssen Pharmaceutica NV, priority 2021, published 2024)
# Where a name gives a salt, the structure may show the parent alone.
# What was measured:
# [1] = system: iCell Cardiomyocytes2 (hSC-CMs); assay: Ca2+-fluorescence assay in human pluripotent stem cell-derived cardiomyocytes (CTCM human); assay type: cell-based; design: key to Hazard Scoring Color @ 0.1 μM / Hazard Scoring Color @ 0.2 μM / Hazard Scoring Color @ 0.5 μM / Hazard Scoring Color @ 1 μM / Hazard Scoring Color @ 2.5 μM / Hazard Scoring Color @ 5 μM / Hazard Scoring Color @ 0.3 μM / Hazard Scoring Color @ 3 μM / Hazard Scoring Color @ 10 μM / Hazard Scoring Color @ 30 μM: Green: No concern; Yellow: Low concern; Red: High concern; Black: Very high concern due to arrhythmic events; conditions: 30 min
# Method: 7) Cardio-Electrophysiological Effects of the Testing Compounds in Synchronously Beating Human Pluripotent Stem Cell-Derived Cardiomyocytes (hSC-CMs) Using a Ca^2+-Fluorescence Assay (CTCM Human)
# Compounds were tested in the 96-well plates.
# Compounds were tested at 0.1 μM, 0.2 μM, 0.5 μM, 1 μM, 2.5 μM and 5 μM (n=4 per dose) on Cor.4U®-Cardiomyocytes or on iCell® Cardionyocytes2.
# Alternatively, compounds were tested at 0.1 μM, 0.3 μM; 1 μM, 3 μM, 10 μM and 30 μM (n=4 per dose) mostly on iCell® Cardiomyocytes2.
# Vehicle control: Dimethylsulfoxide (DMSO). The solutions of the compound in DMSO or its solvent (final concentration of 0.1% DMSO; n=8).
# Tested compounds were dissolved in DMSO at 1000-fold the intended concentrations. A compound “mother-plate” was made, containing the test compounds and positive and negative controls at 1000-fold the final concentrations. At the experiment day, these stock solutions were diluted with Tyrode (Sigma), supplemented with 10 mM HEPES (Gibco), to 2-fold the intended concentration (in round bottom compound plates). Final DMSO concentration in test solutions and vehicle control was 0.1%.
# hSC-CMs (Cor.4U® Cardiomyocytes) were obtained from CDI (Ncardia, Germany). Cells are pre-plated and seeded in fibronectin-coated 96-well plates at a density suited to form a monolayer and maintained in culture in a stage incubator (37° C., 5% CO2), according to the instructions of the cell provider.
# Second line hSC derived cardiomyocyte called iCell® Cardiomyocytes2 were purchased from FUJIFILM Cellular Dynamics (USA). The experiments with test drugs are carried out 5 to 7 days after plating the cells onto the plate to have a living, beating monolayer of hiPSC-derived cardiomyocytes. The beating monolayer in 96-well-plates are normally taken from 2 Vials of frozen iCell® Cardiomyocytes2 (≈5 million cells/vial), which will be plated onto three 96-well plates (≈50K/well).
# At least one hour before the start of the experiments the normal cell medium was replaced with Tyrode solution with Calcium dye (see below).
# Cal 520 dye (AAT Bioquest) was dissolved in 11 ml of Tyrode supplemented with 10 mM HEPES and warmed up to 37 C before adding to the cells.
# 35 μl cell culture medium was removed from each well and replaced with 35 μl of pre-warmed Cal 520 dye solution and cell plate was incubated for 45 min at 37° C./5% CO2. Cells were incubated for 5 min at 37° C.
# Spontaneous electrical activity is recorded, using Cal520™ (AAT Bioquest) calcium fluorescence-dye signalling. This dye integrates the total intracellular calcium activity over the whole well. A bottle of Ca1520 dye (50 μg, MW: 1103/mol) is dissolved with 50 μl DMSO as a stock solution of 0.9 mM. 50 μL of the stock solution of the dye was added to 10 ml Tryodes solution to have dye concentration of 4.5 μM. Subsequently, 35 μl of this dye solution was added into each well, to have a final dye concentration of 1.58 μM. The current dye protocol on this CTCM human assay was established recently (Ivan Kopljar et al, Journal of Pharmacological and toxicological methods 2018. 91: 80-86; Lu et al., Tox Sci 2019. 170 (2): 345-356).
# Fluorescent signals (Ca^2+ transient morphology) were measured using the Functional Drug Screen System (FDSS/μCell; Hamamatsu, Japan) and the recordings were subsequently analyzed off-line, using appropriate software e.g., Notocord.
# The cell plate was loaded into the FDSS/μCell for a test run: Ca^2+ transients were measured for 4 minutes to check for synchronous beating of the cardiomyocytes in each well. All 96 wells were measured simultaneously (sampling interval: 0.06 s, short exposure time: 10 ms; excitation wavelength 480 nm; emission wavelength 540 nm; FDSS/μCell warmed to 37° C.).
# During the compound addition step, 100 μl of the respective double-concentrated test solutions was pipetted into each well simultaneously.
# Data were analyzed off-line using appropriate software e.g., Notocord-Hem (version 4.3). […]
# KO-52 cells = assay: Proliferation assay (spheroid), KO-52 control cell line; assay type: cell-based; conditions: Homo sapiens, 8 days, read-out: spheroid assay_OneTime KO-52 IC50
# Method: The anti-proliferative effect of menin/MLL protein/protein interaction inhibitor test compounds was assessed inhuman leukemia cell lines. The cell line MOLM-14 harbors a MLL translocation and expresses the MLL fusion protein MLL-AF9, respectively, as well as the wildtype protein from the second allele. OCI-AML3 cells that carry the NPM1c gene mutation were also tested. […] KO-52 was used as a control cell line containing two MLL (KMT2A) wildtype alleles in order to exclude compounds that display general cytotoxic effects.
# KO-52 and OCI-AML3 cell lines were propagated in alpha-MEM (Sigma Aldrich) supplemented with 20% heat-inactivated fetal bovine serum (HyClone), 2 mM L-glutamine (Sigma Aldrich) and 50 μg/ml gentamycin (Gibco).
# In order to assess the anti-proliferative effects, 200 MOLM-14 cells, 200 OCI-AML3 cells or 300 KO-52 cells were seeded in 200 μl media per well in 96-well round bottom, ultra-low attachment plates (Costar, catalogue number 7007). […] Spheroid like growth was measured in real-time by live-cell imaging (IncuCyteZOOM, Essenbio, 4× objective) acquiring images at day 8. Confluence (%) as a measure of spheroid size was determined using an integrated analysis tool.
# In order to determine the effect of the test compounds over time, the confluence in each well as a measure of spheroid size, was calculated. […]
# [2] = iCell Cardiomyocytes2 (Table 12)
# [3] = iCell Cardiomyocytes2 (Table 11)
SMILES,"Hazard Scoring Color @ 0.1 μM [1, 2]","Hazard Scoring Color @ 0.3 μM ([1]; 0.3 μM, iCell Cardiomyocytes2 (Table 12))","Hazard Scoring Color @ 1 μM [1, 2]","Hazard Scoring Color @ 3 μM ([1]; 3 μM, iCell Cardiomyocytes2 (Table 12))","Hazard Scoring Color @ 10 μM ([1]; 10 μM, iCell Cardiomyocytes2 (Table 12))","Hazard Scoring Color @ 30 μM ([1]; 30 μM, iCell Cardiomyocytes2 (Table 12))",IC50 (KO-52 cells) [µM],"Hazard Scoring Color @ 0.1 μM [1, 3]","Hazard Scoring Color @ 0.2 μM ([1]; 0.2 μM, iCell Cardiomyocytes2 (Table 11))","Hazard Scoring Color @ 0.5 μM ([1]; 0.5 μM, iCell Cardiomyocytes2 (Table 11))","Hazard Scoring Color @ 1 μM [1, 3]","Hazard Scoring Color @ 2.5 μM ([1]; 2.5 μM, iCell Cardiomyocytes2 (Table 11))","Hazard Scoring Color @ 5 μM ([1]; 5 μM, iCell Cardiomyocytes2 (Table 11))"
"CCN(C(=O)c1cc(F)ccc1Oc1nncnc1N1CCC2(C1)CN([C@H](CCCNCCOC)C(C)C)C2)C(C)C [Compound 11, (R)-N-ethyl-5-fluoro-N-isopropyl-2-((5-(2-(6-((2-methoxyethyl)amino)-2-methylhexan-3-yl)-2,6-diazaspiro[3.4]octan-6-yl)-1,2,4-triazin-6-yl)oxy)benzamide]",Green,Green,Green,Green,Green,Green,8.38,,,,,,
"CCN(C(=O)c1cc(F)ccc1Oc1nncnc1N1CCC2(C1)CN([C@H](CCCN(C)CCOC)C(C)C)C2)C(C)C [Compound A3, (R)-N-ethyl-5-fluoro-N-isopropyl-2-((5-(2-(6-((2-methoxyethyl) (methyl)amino)-2-methylhexan-3-yl)-2,6-diazaspiro[3.4]octan-6-yl)-1,2,4-triazin-6-yl)oxy) benzamide oxalate]",,,,,,,7.75,Green,Green,Green,Green,Green,Green
